Results on 21 compounds are retold here after patent US11370785B2, “Multicyclic compounds as farnesoid X receptor modulators” (BRISTOL-MYERS SQUIBB COMPANY, priority 2017, dated 2022).

The term EC50 denotes the concentration needed to bring the measured effect to its halfway point.

Structures are written as SMILES.

The first test deals with Fgf15. Briefly: Acute mouse in vivo assay, Fgf15 gene expression in ileum. The settings on record: 3 mg/kg single oral dose, @ 6 h. As to the method: Acute Mouse In Vivo Assay:
Male, C57BL6/NTac mice, weighing 25-28 g, are purchased from Taconic Labs (Hudson, N.Y.) and maintained on Teklad Global 18% Protein Rodent Diet (Harlan Laboratories). After 1 week acclimation, mice are sorted into groups based upon body weight. Mice are administered a single oral dose of vehicle or experimental compound. Systemic compound exposure is evaluated in plasma derived from blood collected via the submandibular vein at 1 hour post-dose, and at study termination (6 h). At study termination, the animals are euthanized and rapidly dissected. The medial lobe of the liver is divided, with one half being homogenized and analyzed for compound exposure, and the other half saved in RNAlater (Thermo-Fisher Scientific). The ileum is also dissected and preserved in RNAlater. Tissue samples in RNAlater are homogenized with MP Biomedicals' beads. […] RNA Concentration is determined with the Nano-Drop 8000 Spectrophotometer (Thermo Fisher). […] Mouse genes analyzed include Nr0b2 (which encodes the small heterodimer partner, SHP), Abcb11 (which encodes the bile salt excretion pump, BSEP), Cyp7a1, & Cyp8b1 in liver, and Fgf15, Fabp6 (which encodes ileal bile acid binding protein, I-BABP), Slc51a (which encodes organic solute transporter alpha subunit, OSTA), and Slc51b (which encodes organic solute transporter beta subunit, OSTB) in the ileum. […]
As for `O=C(O)c1cc(C(F)(F)F)c2cc(N3CCC4(CC3)CC(Cc3c(-c5ccccc5C(F)(F)F)noc3C3CC3)C4)ccc2n1` [Example 4, 6-(2-((5-Cyclopropyl-3-(2-(trifluoromethyl)phenyl)isoxazol-4-yl)methyl)-7-azaspiro[3.5]nonan-7-yl)-4-(trifluoromethyl)quinoline-2-carboxylic acid], the “Fgf15 expression, fold increase relative to vehicle control” value is “+24 x”.

For another test, the target named is T1, human FXR (Homo sapiens, UniProt Q96RI1).
T1 construct: expressed in transfected cells; host or cells: HEK293 cells stably carrying a 5xGal4-response-element firefly luciferase reporter, transiently transfected with the pcDNA3.1-Gal4-FXR plasmid
T1 sequence (Q96RI1 262-486 limits assumed): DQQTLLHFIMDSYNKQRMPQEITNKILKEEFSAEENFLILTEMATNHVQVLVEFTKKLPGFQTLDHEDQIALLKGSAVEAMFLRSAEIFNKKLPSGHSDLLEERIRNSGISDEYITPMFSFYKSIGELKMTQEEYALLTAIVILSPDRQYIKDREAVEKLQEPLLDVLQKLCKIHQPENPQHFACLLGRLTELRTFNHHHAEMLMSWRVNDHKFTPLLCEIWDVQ
Briefly: transient human FXR/Gal4-luciferase reporter assay. It counts as cell-based. The conditions noted are these: Gal4-hFXR reporter in HEK293 cells; read-out: HLE GAL-FXR EC50. Summed up: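 HEK293 cells stably carrying a 5×Gal4-response-element firefly luciferase reporter, transiently transfected with a CMV-driven Gal4 DNA-binding domain–human FXR ligand-binding domain fusion, were treated overnight at 37 °C with serially diluted compounds. Luminescence was read by Steady-Glo; DMSO background was subtracted and signal expressed as percent of the 8 μM GW-4064 response.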
`O=C(O)c1cc(F)c2nc(N3CCC4(CC3)CC(Cc3c(-c5ccccc5C(F)(F)F)noc3C3CC3)C4)sc2c1` [Example 3, 2-(2-((5-Cyclopropyl-3-(2-(trifluoromethyl)phenyl)isoxazol-4-yl)methyl)-7-azaspiro[3.5]nonan-7-yl)-4-fluorobenzo[d]thiazole-6-carboxylic acid]: the EC50 came out at 85 nM.

Consider `O=C(O)c1cc(C(F)(F)F)c2cc(N3CCC4(CC3)CC(Cc3c(-c5ccccc5C(F)(F)F)noc3C3CC3)C4)ccc2n1` [Example 4, 6-(2-((5-Cyclopropyl-3-(2-(trifluoromethyl)phenyl)isoxazol-4-yl)methyl)-7-azaspiro[3.5]nonan-7-yl)-4-(trifluoromethyl)quinoline-2-carboxylic acid], for which the EC50 stood at 26 nM. As for `O=C(O)c1cc(F)c2nc(N3CCC4(CC3)CC(Nc3c(-c5c(Cl)cccc5Cl)noc3C3CC3)C4)sc2c1` [Example 5, 2-(2-((5-Cyclopropyl-3-(2,6-dichlorophenyl)isoxazol-4-yl)amino)-7-azaspiro[3.5]nonan-7-yl)-4-fluorobenzo[d]thiazole-6-carboxylic acid], the concentration giving a half-maximal response (EC50) stood at 60 nM.

The test is the same for the next values; noted with them: Gal4-hFXR reporter in HEK293 cells; relative to 8 μM GW-4064; read-out: FXR EC50.
`O=C(O)c1cc(C(F)(F)F)c2cc(N3CCC4(CC3)CC(=Cc3c(-c5c(Cl)cncc5Cl)noc3C3CC3)C4)ccc2n1` [Example 73]: the EC50 is 18 nM.

For `N#Cc1ccc(N2CCC3(CC2)CC(=Cc2c(-c4c(Cl)cccc4Cl)noc2C2CC2)C3)cc1` [Example 48, 4-(2-((5-cyclopropyl-3-(2,6-dichlorophenyl)isoxazol-4-yl)methylene)-7-azaspiro[3.5]nonan-7-yl)benzonitrile], the EC50 is 2360 nM.

As for `Cc1cccc(Cl)c1-c1noc(C2CC2)c1C=C1CC2(CCN(c3ccc4nc(C(=O)O)ccc4c3)CC2)C1` [Example 56], the 50% effective concentration (EC50) was found to be 152 nM. On to `O=C(O)c1cc(OC2CCC2)c2cc(N3CCC4(CC3)CC(Cc3c(-c5ccccc5OC(F)(F)F)noc3C3CC3)C4)ccc2n1` [Example 116], for which the EC50 is 14 nM. Same read-out and setting: the figure for `O=C(O)c1cc(OC(F)F)c2cc(N3CCC4(CC3)CC(Cc3c(-c5ccccc5C(F)(F)F)noc3C3CC3)C4)ccc2n1` [Example 79] is 2 nM; for `CN(C)C(=O)c1cc(OC2CCC2)c2cc(N3CCC4(CC3)CC(Cc3c(-c5ccccc5C(F)(F)F)noc3C3CC3)C4)ccc2n1` [Example 172, 4-Cyclobutoxy-6-(2-((5-cyclopropyl-3-(2-(trifluoromethyl)phenyl)isoxazol-4-yl)methyl)-7-azaspiro[3.5]nonan-7-yl)-N,N-dimethylquinoline-2-carboxamide] it is 69 nM; for `COc1ccc(C(=O)O)c2ccc(N3CCC4(CC3)CC(=Cc3c(-c5c(Cl)cncc5Cl)noc3C3CC3)C4)nc12` [Example 119] it is 336 nM. On to `O=C(O)c1ccc(N2CCC3(CC2)CC(Nc2c(-c4c(Cl)cccc4Cl)noc2C2CC2)C3)nc1` [Example 13], for which the EC50 is 1220 nM.

For the compound `O=C(O)c1cc(OCCO)c2cc(N3CCC4(CC3)CC(=Cc3c(-c5ccccc5C(F)(F)F)noc3C3CC3)C4)ccc2n1` [Example 92], the 50% effective concentration (EC50) came out at 450 nM. With `O=C(O)c1ccc2cc(N3CCC4(CC3)CC(=Cc3c(-c5ccccc5C(F)(F)F)noc3C3CC3)C4)ccc2n1` [Example 29], the EC50 worked out at 172 nM.

For the compound `O=C(O)c1cc(F)c2nc(N3CCC4(CC3)CC(=Cc3c(-c5c(Cl)cccc5Cl)noc3C3CC3)C4)sc2c1` [Example 130], the EC50 worked out at 260 nM. The same measure, in the same setting: to `O=C(O)c1cc(C(F)(F)F)cc(N2CCC3(CC2)CC(Cc2c(-c4ccccc4C(F)(F)F)noc2C2CC2)C3)n1` [Example 163] belongs 1270 nM; to `O=C(O)c1cc(OC2COC2)c2cc(N3CCC4(CC3)CC(=Cc3c(-c5c(Cl)cncc5Cl)noc3C3CC3)C4)ccc2n1` [Example 139], 47 nM; to `O=C(O)c1ccc2cc(N3CCC4(CC3)CC(=Cc3c(-c5c(Cl)cccc5Cl)noc3C3CC3)C4)ccc2c1` [Example 47], 53 nM. For `CC(C)Oc1cc(C(=O)O)nc2ccc(N3CCC4(CC3)CC(=Cc3c(-c5c(Cl)cncc5Cl)noc3C3CC3)C4)cc12` [Example 85], the EC50 was found to be 3 nM. Turning to `COc1cc(C(=O)O)nc2ccc(N3CCC4(CC3)CC(=Cc3c(-c5ccccc5OC(F)(F)F)noc3C3CC3)C4)cc12` [Example 70], the EC50 was found to be 65 nM. As for `O=C(O)c1cc(OC2COC2)c2cc(N3CCC4(CC3)CC(Cc3c(-c5ccccc5C(F)(F)F)noc3C3CC3)C4)ccc2n1` [Example 138], the EC50 amounted to 23 nM.

On to `Cn1cc(C(=O)O)c2ccc(N3CCC4(CC3)CC(=Cc3c(-c5ccccc5OC(F)(F)F)noc3C3CC3)C4)nc21` [Example 28], for which the concentration giving a half-maximal response (EC50) is 229 nM.
